{
  "source": "patent US11672786B2",
  "about": "“Methods of treating diseases associated with repeat instability” (The Hospital for Sick Children, priority 2016, dated 2023)",
  "key": {"[1]": {"tested_on": "fully-duplexed (CAG)50●(CTG)50", "assay": "band-shift NA-DNA binding, fully-duplexed repeat", "parameters": "species or system human", "conditions": "NA 0.15-50 μM, 4% polyacrylamide gel", "text": "(§1) FIG. 2 are the results of experiments showing that NA binds to long CAG slip-outs. […] The (CAG)n DNA sequence (left) can fold into an hairpin structure involving mismatched A-A pair flanking C-G base pairs (middle). NA molecules can intercalate into the DNA helix, with the 2-amino-1,8-naphthyridine moiety (in red) hydrogen bonding to guanine and 8-azaquinolone moiety (in blue) hydrogen bonding to adenine. […] Long slip-outs extruded as a single slip-out from a fully base-paired backbone of (CTG)n●(CAG)n, as described (Pearson et al., 2002, Nuc. Acids Res., 30:4534-47). DNAs were mixed with increasing concentrations of NA (0.15 μM, 0.75 μM, 7.5 μM and 50 μM) and resolved on 4% polyacrylamide gels. All lanes are from the same gel, and they were separated for clarity. NA-DNA complexes are shown by brackets, free DNA is indicated by arrowheads. […] The relative migration was measured for the linear and the three slip-outs substrates as the ratio of the migration distance of each NA-DNA complex to the migration distance of the free DNA. The migration distance was measured from the well to a consistent center point of each band. […]"}, "[2]": {"tested_on": "long (CAG)20 slip-outs from (CAG)50●(CTG)30", "assay": "band-shift NA-DNA binding, long (CAG)20 slip-out", "parameters": "species or system human", "conditions": "NA 0.15-50 μM, 4% polyacrylamide gel", "text": "as §1"}, "[3]": {"tested_on": "plasmids pDM79EF, pDM79HF, pKN16 with SV40 origin of replication", "assay": "in vitro SV40 replication assay by HeLa cell extracts", "assay_type": "biochemical, human", "conditions": "NA 7.5 μM or 15 μM", "procedure": "Three circular plasmids containing the SV40 origin of replication, and an expanded (CAG)79●(CTG)79 repeat tract (pDM79EF and pDM79HF) or no repeats (pKN16), were replicated in vitro by human HeLa cell extracts and added recombinant SV40 T-Ag, without or with NA (7.5 μM or 15 μM) treatment. […] Replication products were purified and linearized with BanHI. An equal portion of the reaction material was also digested with BamHI and DpnI; DpnI digests un-replicated and partially-replicated material, as shown in the schematic (top figure).\nThese templates containing repeats (pDM79EF and pDM79HF) and another substrate with SV40-ori and no-repeats (pKN16) were replicated in vitro by HeLa cell extract adding [α-^32P]dCTP and T-Antigen, as described in detail in Panigrahi et al. (2002, J. Biol. Chem., 277:13926-34) and Cleary et al. (2002, Nat. Genet., 31(1):37-46). Replication reaction was performed without or with NA (7.5 μM and 15 μM). Radioactive replication products were purified, linearized with BamHI, and treated with DpnI (for details see FIG. 9). […] Equal quantities of reaction products were resolved by electrophoresis on a 15-cm 1% agarose gel. The gel was run for 16 h at 4 V/cm in TBE buffer, dried, and exposed to Kodak film."}, "[4]": {"tested_on": "(CAG)10 hairpins", "conditions": "cited from earlier work"}},
  "data": [
    {"substance": "naphthyridine-azaquinolone", "values": [
      {"measurement": "NA binding (band-shift)", "setting": "[1]", "result": "did not bind"},
      {"measurement": "NA binding (band-shift)", "setting": "[2]", "result": "extensively bound"},
      {"measurement": "effect on replication efficiency and replication fork progression", "setting": "[3]", "result": "does not affect replication efficiency or replication fork progression"},
      {"measurement": "melting temperature of (CAG)10 hairpins with NA", "setting": "[4]; 50 μM NA, 47.1 (±0.7)° C. without NA", "result": "78.8 (±0.1) ° C."},
      {"measurement": "increase of the melting temperature of (CAG)10 hairpins", "setting": "[4]", "result": "> 30", "unit": "°C"}
    ]}
  ]
}
